Assay results published in patent publication US9809545B2, “Factor XIa inhibitors” (Merck Sharp & Dohme Corp., priority 2013, dated 2017).

Biological target: purified human Factor XIa (Homo sapiens (Human), UniProt P03951)
Experiment: Factor XIa Assay
Format: biochemical
Details: purified human Factor XIa 40 pM; substrate Z-Gly-Pro-Arg-AFC 100 μM; 50 mM HEPES pH 7.4; read-out: hFXIa Ki
Procedure: The rate of hydrolysis of the chromogenic or fluorogenic substrate by the relevant serine protease was measured both in the absence and presence of compounds of the present invention. Assays were conducted at room temperature or at 37° C. […] A decrease in the rate of fluorescence change in the presence of inhibitor is indicative of enzyme inhibition. […] The results of this assay are expressed as the inhibitory constant, Ki.
Factor XIa determinations were made in 50 mM HEPES buffer at pH 7.4 containing 150 mM NaCl, 5 mM CaCl2, and 0.1% PEG 8000 (polyethylene glycol; JT Baker or Fisher Scientific). Determinations were made using purified human Factor XIa at a final concentration of 40 pM (Sekisui Diagnostics) and the synthetic substrate, Z-Gly-Pro-Arg-AFC, TFA salt (Sigma #C0980) at a concentration of 100 μM.
Activity assays were performed by diluting a stock solution of substrate at least tenfold to a final concentration ≦0.1 Km into a solution containing enzyme or enzyme equilibrated with inhibitor. Times required to achieve equilibration between enzyme and inhibitor were determined in control experiments. Initial velocities of product formation in the absence (Vo) or presence of inhibitor (Vi) were measured. Assuming competitive inhibition, and that unity is negligible compared Km/[S], [I]/e, and [I]/e (where [S], [I], and e respectively represent the total concentrations, of substrate, inhibitor and enzyme), the equilibrium constant (Ki) for dissociation of the inhibitor from the enzyme can be obtained from the dependence of Vo/Vi on [I] shown in the following equation.

Chain of purified human Factor XIa (P03951 388-625): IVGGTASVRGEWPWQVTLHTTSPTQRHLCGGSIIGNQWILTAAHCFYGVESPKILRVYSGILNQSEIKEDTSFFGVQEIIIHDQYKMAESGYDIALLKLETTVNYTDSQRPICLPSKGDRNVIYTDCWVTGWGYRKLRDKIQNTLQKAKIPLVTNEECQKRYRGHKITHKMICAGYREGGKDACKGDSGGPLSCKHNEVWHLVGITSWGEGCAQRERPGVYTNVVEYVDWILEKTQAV
Chain of purified human Factor XIa (P03951 19-387 partner): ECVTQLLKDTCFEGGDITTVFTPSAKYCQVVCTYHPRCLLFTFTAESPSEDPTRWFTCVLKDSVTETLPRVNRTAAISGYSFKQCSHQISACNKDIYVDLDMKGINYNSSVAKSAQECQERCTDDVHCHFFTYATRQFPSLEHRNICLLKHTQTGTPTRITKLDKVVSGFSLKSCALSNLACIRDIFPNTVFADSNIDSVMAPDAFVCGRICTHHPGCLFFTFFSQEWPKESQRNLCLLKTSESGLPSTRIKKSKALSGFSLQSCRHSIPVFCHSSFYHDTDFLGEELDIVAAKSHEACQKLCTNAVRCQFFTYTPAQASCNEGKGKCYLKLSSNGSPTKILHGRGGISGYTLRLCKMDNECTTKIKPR

Row | SMILES | Ki [nM]
1 | O=C(O)c1ccc(NC(=O)[C@H](Cc2ccc(F)cc2)n2ccc(-c3cc(Cl)ccc3-n3cnnn3)cc2=O)cc1 [Example 1Ea, (S)-4-(2-(4-(5-chloro-2-(1H-tetrazol-1-yl)phenyl)-2-oxopyridin-1(2H)-yl)-3-(4-fluorophenyl)propanamido)benzoic acid] | 6
2 | O=C(C(Cc1ccccc1)n1ccc(-c2cc(Cl)ccc2[N+](=O)[O-])cc1=O)N1CCC(N2CC[C@@H](O)C2)CC1 (stereo partly drawn) [Example 1Aw, 4-(5-chloro-2-nitrophenyl)-1-(1-(4-((R)-3-hydroxypyrrolidin-1-yl)piperidin-1-yl)-1-oxo-3-phenylpropan-2-yl)pyridin-2(1H)-one] | > 10000
3 | O=C(O)c1ccc2[nH]c([C@H](Cc3ccc(F)cc3)n3ccc(-c4cc(Cl)ccc4-n4cnnn4)cc3=O)nc2c1 [Example 3Bd, (S)-2-(1-(4-(5-chloro-2-(1H-tetrazol-1-yl)phenyl)-2-oxopyridin-1(2H)-yl)-2-(4-fluorophenyl)ethyl)-1H-benzo[d]imidazole-5-carboxylic acid] | < 5
4 | O=C(O)c1ccc(NC(=O)C(Cc2ccccc2)n2ccc(-c3cnccc3Cl)cc2=O)cc1 (centres unmarked) [Example 2Af, 4-(2-(4-chloro-2′-oxo-[3,4′-bipyridin]-1′(2′H)-yl)-3-phenylpropanamido)benzoic acid] | 7750
5 | O=C(O)c1ccc2[nH]c([C@H](Cc3ccccc3)n3ccc(-c4cc(Cl)ccc4-n4cnnn4)cc3=O)nc2c1 [Example 3g, (S)-2-(1-(4-(5-chloro-2-(1H-tetrazol-1-yl)phenyl)-2-oxopyridin-1(2H)-yl)-2-phenylethyl)-1H-benzo[d]imidazole-5-carboxylic acid] | < 5
6 | O=c1cc(-c2cc(Cl)ccc2-n2cnnn2)ccn1C(Cc1ccc(F)cc1)c1nc(-c2ccc(F)cc2)c[nH]1 (centres unmarked) [Example 4Af, 4-(5-chloro-2-(1H-tetrazol-1-yl)phenyl)-1-(2-(4-fluorophenyl)-1-(4-(4-fluorophenyl)-1H-imidazol-2-yl)ethyl)pyridin-2(1H)-one] | 154
7 | N=C(N)c1ccc(-c2ccn(C(Cc3ccccc3)C(=O)Nc3ccc(C(=O)O)cc3)c(=O)c2)cc1 (centres unmarked) [Example 2d, 4-(2-(4-(4-carbamimidoylphenyl)-2-oxopyridin-1(2H)-yl)-3-phenylpropanamido)benzoic acid] | 370
8 | O=C(O)c1ccc(NC(=O)[C@@H](Cc2ccccc2)n2ccc(-c3cc(Cl)ccc3-n3cnnn3)cc2=O)cc1 [Example 1Ff, (R)-4-(2-(4-(5-chloro-2-(1H-tetrazol-1-yl)phenyl)-2-oxopyridin-1(2H)-yl)-3-phenylpropanamido)benzoic acid] | 6
9 | O=c1cc(-c2cc(Cl)ccc2-n2cnnn2)ccn1[C@@H](Cc1ccc(F)cc1)c1nc2cc(P(=O)(O)O)ccc2[nH]1 [Example 5b, (S)-(2-(1-(4-(5-chloro-2-(1H-tetrazol-1-yl)phenyl)-2-oxopyridin-1(2H)-yl)-2-(4-fluorophenyl)ethyl)-1H-benzo[d]imidazol-5-yl)phosphonic acid] | < 5
10 | COC(=O)Nc1ccc(CNC(=O)C(Cc2ccccc2)n2ccc(-c3cc(Cl)ccc3[N+](=O)[O-])cc2=O)cc1 (centres unmarked) [Example 1Al, methyl (4-((2-(4-(5-chloro-2-nitrophenyl)-2-oxopyridin-1(2H)-yl)-3-phenylpropanamido)methyl)phenyl)carbamate] | 340
11 | N#Cc1ccc(-c2cnc([C@@H](Cc3ccc(F)cc3)n3ccc(-c4cc(Cl)ccc4-n4cnnn4)cc3=O)[nH]2)cc1 [Example 4Cl, (R)-4-(2-(1-(4-(5-chloro-2-(1H-tetrazol-1-yl)phenyl)-2-oxopyridin-1(2H)-yl)-2-(4-fluorophenyl)ethyl)-1H-imidazol-5-yl)benzonitrile] | < 5
12 | CCOC(=O)Nc1ccc(NC(=O)C(Cc2ccccc2)n2ccc(-c3cc(Cl)ccc3[N+](=O)[O-])cc2=O)cc1 (centres unmarked) [Example 1Ag, ethyl (4-(2-(4-(5-chloro-2-nitrophenyl)-2-oxopyridin-1(2H)-yl)-3-phenylpropanamido)phenyl)carbamate] | 400
13 | O=c1cc(-c2cc(Cl)ccc2-n2cnnn2)ccn1C(Cc1ccccc1)c1nc(-c2cccnc2)c[nH]1 (centres unmarked) [Example 4Aa, 4-(5-chloro-2-(1H-tetrazol-1-yl)phenyl)-1-(2-phenyl-1-(4-(pyridin-3-yl)-1H-imidazol-2-yl)ethyl)pyridin-2(1H)-one] | < 5
14 | O=C(O)c1ccc(NC(=O)[C@H](Cc2ccccc2)n2ccc(-c3cc(Cl)ccc3-n3cnnn3)cc2=O)cc1 [Example 1Ef, (S)-4-(2-(4-(5-chloro-2-(1H-tetrazol-1-yl)phenyl)-2-oxopyridin-1(2H)-yl)-3-phenylpropanamido)benzoic acid] | < 5
